In ChEMBL document CHEMBL5325403, “Benzenesulfonyl thiazoloimines as unique multitargeting antibacterial agents towards Enterococcus faecalis” (Eur J Med Chem, 2023) one finds MIC data, which are given here for 15 compounds.

≈ marks a conversion by molar mass, not a printed value.

As a reminder, the MIC is the least concentration at which growth counts as inhibited.

Assay type in all cases: functional
Assay [1] has as its system Acinetobacter baumannii. The assay can be described thus: Antibacterial activity against Acinetobacter baumannii assessed as inhibition of bacterial growth by continuous dilution method.
Assay [2] concerns Staphylococcus aureus. Kind of assay: Antibacterial activity against Staphylococcus aureus assessed as inhibition of bacterial growth by continuous dilution method.
Assay [3] deals with Escherichia coli. The assay can be described thus: Antibacterial activity against Escherichia coli assessed as inhibition of bacterial growth by continuous dilution method.
Assay [4] has as its system Staphylococcus aureus. Kind of assay: Antibacterial activity against methicillin-resistant Staphylococcus aureus N315 assessed as inhibition of bacterial growth by continuous dilution method.
Assay [5] has as its system Klebsiella pneumoniae. The assay can be described thus: Antibacterial activity against Klebsiella pneumoniae assessed as inhibition of bacterial growth by continuous dilution method.
The test system of assay [6] is Staphylococcus aureus. The assay can be described thus: Antibacterial activity against Staphylococcus aureus ATCC 25923 assessed as inhibition of bacterial growth by continuous dilution method.
Assay [7] deals with Escherichia coli. The assay can be described thus: Antibacterial activity against Escherichia coli ATCC 25922 assessed as inhibition of bacterial growth by continuous dilution method.
Assay [8] deals with Staphylococcus aureus. Kind of assay: Antibacterial activity against Staphylococcus aureus ATCC 29213 assessed as inhibition of bacterial growth by continuous dilution method.
The subject of assay [9] is Enterococcus faecalis. The assay can be described thus: Antibacterial activity against Enterococcus faecalis assessed as inhibition of bacterial growth by continuous dilution method.
The subject of assay [10] is Pseudomonas aeruginosa. The assay can be described thus: Antibacterial activity against Pseudomonas aeruginosa ATCC 27853 assessed as inhibition of bacterial growth by continuous dilution method.
For assay [11], the system named is Pseudomonas aeruginosa. The assay can be described thus: Antibacterial activity against Pseudomonas aeruginosa assessed as inhibition of bacterial growth by continuous dilution method.

Turning to `CC(=O)Nc1ccc(S(=O)(=O)C/C(=N/NC(=O)c2cccnc2)c2nccs2)cc1`, the MIC in assay [1] came out at 32 µg/mL (≈ 72.2 µM); in [2] it was 8 µg/mL (≈ 18 µM); in assay [3], 32 µg/mL (≈ 72.2 µM); in assay [4] it was 2 µg/mL (≈ 4.51 µM); in assay [5], 16 µg/mL (≈ 36.1 µM); in [6], 2 µg/mL (≈ 4.51 µM). Moreover, the MIC was determined as 128 µg/mL (≈ 289 µM) in [7]; 128 µg/mL (≈ 289 µM) in [8]; 128 µg/mL (≈ 289 µM) in assay [9]; 16 µg/mL (≈ 36.1 µM) in assay [10]; 128 µg/mL (≈ 289 µM) in assay [11].
With `CC(=O)Nc1ccc(S(=O)(=O)C/C(=N/NC(=O)Cc2ccccc2)c2nccs2)cc1`, the MIC is 256 µg/mL (≈ 561 µM) in [1]; 256 µg/mL (≈ 561 µM) in [2]; 256 µg/mL (≈ 561 µM) in [3]; 64 µg/mL (≈ 140 µM) in assay [4]; 128 µg/mL (≈ 280 µM) in [5]; 64 µg/mL (≈ 140 µM) in assay [6]. Besides, the minimum inhibitory concentration (MIC) was 32 µg/mL (≈ 70.1 µM) in assay [7]; 256 µg/mL (≈ 561 µM) in assay [8]; 64 µg/mL (≈ 140 µM) in assay [9]; 16 µg/mL (≈ 35 µM) in assay [10]; 256 µg/mL (≈ 561 µM) in assay [11].
In the case of `CCCCCCO/N=C(/CS(=O)(=O)c1ccc(N)cc1)c1nccs1`, the MIC in assay [1] was 64 µg/mL (≈ 168 µM); in assay [2] it was 32 µg/mL (≈ 83.9 µM); in [3], 16 µg/mL (≈ 41.9 µM); in assay [4] it was 128 µg/mL (≈ 335 µM); in [5] it was 32 µg/mL (≈ 83.9 µM); in [6] it was 64 µg/mL (≈ 168 µM). The minimum inhibitory concentration (MIC) in [7] amounted to 16 µg/mL (≈ 41.9 µM); in assay [8], 64 µg/mL (≈ 168 µM); in [9], 8 µg/mL (≈ 21 µM); in assay [10] it was 16 µg/mL (≈ 41.9 µM); in [11], 16 µg/mL (≈ 41.9 µM).
For `CC(=O)Nc1ccc(S(=O)(=O)C/C(=N/Nc2ccc([N+](=O)[O-])cc2[N+](=O)[O-])c2nccs2)cc1`, the MIC in [1] came out at 4 µg/mL (≈ 7.93 µM); in assay [2], 2 µg/mL (≈ 3.96 µM); in [3] it was 64 µg/mL (≈ 127 µM); in [4], 8 µg/mL (≈ 15.9 µM); in [5] it was 64 µg/mL (≈ 127 µM); in [6] it was 4 µg/mL (≈ 7.93 µM). In addition, the MIC came out at 4 µg/mL (≈ 7.93 µM) in [7]; 32 µg/mL (≈ 63.4 µM) in assay [8]; 2 µg/mL (≈ 3.96 µM) in assay [9]; 32 µg/mL (≈ 63.4 µM) in assay [10]; 64 µg/mL (≈ 127 µM) in assay [11].
On to `CC(=O)Nc1ccc(S(=O)(=O)/C(=C\c2ccc([N+](=O)[O-])cc2)C(=O)c2nccs2)cc1`, for which the MIC was determined as 256 µg/mL (≈ 560 µM) in assay [1]; 256 µg/mL (≈ 560 µM) in assay [2]; 32 µg/mL (≈ 69.9 µM) in assay [3]; 128 µg/mL (≈ 280 µM) in assay [4]; 128 µg/mL (≈ 280 µM) in [5]; 256 µg/mL (≈ 560 µM) in assay [6]. The MIC came to 64 µg/mL (≈ 140 µM) in assay [7]; 256 µg/mL (≈ 560 µM) in [8]; 128 µg/mL (≈ 280 µM) in [9]; 64 µg/mL (≈ 140 µM) in assay [10]; 64 µg/mL (≈ 140 µM) in assay [11].
`C=CCO/N=C(/CS(=O)(=O)c1ccc(N)cc1)c1nccs1`: the MIC came out at 64 µg/mL (≈ 190 µM) in [1]; 64 µg/mL (≈ 190 µM) in [2]; 32 µg/mL (≈ 94.8 µM) in assay [3]; 128 µg/mL (≈ 379 µM) in assay [4]; 32 µg/mL (≈ 94.8 µM) in [5]; 32 µg/mL (≈ 94.8 µM) in assay [6]. For the same compound, the minimum inhibitory concentration (MIC) in [7] is 16 µg/mL (≈ 47.4 µM); in [8], 32 µg/mL (≈ 94.8 µM); in [9], 16 µg/mL (≈ 47.4 µM); in assay [10] it was 16 µg/mL (≈ 47.4 µM); in assay [11], 64 µg/mL (≈ 190 µM).
Consider `CC(=O)Nc1ccc(S(=O)(=O)C/C(=N/O)c2nccs2)cc1`, for which the MIC turned out to be 256 µg/mL (≈ 754 µM) in assay [1]; 128 µg/mL (≈ 377 µM) in assay [2]; 64 µg/mL (≈ 189 µM) in [3]; 64 µg/mL (≈ 189 µM) in [4]; 64 µg/mL (≈ 189 µM) in assay [5]; 128 µg/mL (≈ 377 µM) in [6]. The MIC in assay [7] turned out to be 64 µg/mL (≈ 189 µM); in [8], 64 µg/mL (≈ 189 µM); in assay [9] it was 64 µg/mL (≈ 189 µM); in assay [10], 64 µg/mL (≈ 189 µM); in assay [11], 128 µg/mL (≈ 377 µM).
Take `CC(=O)Nc1ccc(S(=O)(=O)C/C(=N/OCC#N)c2nccs2)cc1`: the MIC in assay [1] amounted to 256 µg/mL (≈ 676 µM); in [2], 64 µg/mL (≈ 169 µM); in assay [3] it was 32 µg/mL (≈ 84.6 µM); in [4], 64 µg/mL (≈ 169 µM); in [5] it was 64 µg/mL (≈ 169 µM); in assay [6] it was 128 µg/mL (≈ 338 µM). For the same compound, the MIC worked out at 32 µg/mL (≈ 84.6 µM) in assay [7]; 64 µg/mL (≈ 169 µM) in [8]; 64 µg/mL (≈ 169 µM) in assay [9]; 64 µg/mL (≈ 169 µM) in assay [10]; 128 µg/mL (≈ 338 µM) in assay [11].
In the case of `CC(=O)Nc1ccc(S(=O)(=O)/C(=C\c2ccc(Cl)cc2Cl)C(=O)c2nccs2)cc1`, the MIC in [1] amounted to 256 µg/mL (≈ 532 µM); in [2], 128 µg/mL (≈ 266 µM); in [3] it was 256 µg/mL (≈ 532 µM); in assay [4] it was 128 µg/mL (≈ 266 µM); in [5] it was 128 µg/mL (≈ 266 µM); in [6] it was 64 µg/mL (≈ 133 µM). Besides, the minimal inhibitory concentration (MIC) in assay [7] turned out to be 256 µg/mL (≈ 532 µM); in assay [8], 256 µg/mL (≈ 532 µM); in assay [9], 128 µg/mL (≈ 266 µM); in [10] it was 128 µg/mL (≈ 266 µM); in assay [11] it was 128 µg/mL (≈ 266 µM).
With `CC(=O)Nc1ccc(S(=O)(=O)C/C(=N/Nc2ccc(Cl)cc2)c2nccs2)cc1`, the MIC in assay [1] came to 256 µg/mL (≈ 570 µM); in assay [2], 128 µg/mL (≈ 285 µM); in assay [3], 128 µg/mL (≈ 285 µM); in [4], 256 µg/mL (≈ 570 µM); in assay [5], 256 µg/mL (≈ 570 µM); in assay [6], 256 µg/mL (≈ 570 µM). Besides, the MIC in assay [7] was 128 µg/mL (≈ 285 µM); in assay [8], 128 µg/mL (≈ 285 µM); in assay [9] it was 64 µg/mL (≈ 143 µM); in assay [10], 128 µg/mL (≈ 285 µM); in assay [11], 256 µg/mL (≈ 570 µM).
With `CC(=O)Nc1ccc(S(=O)(=O)/C(=C\c2ccc(F)cc2F)C(=O)c2nccs2)cc1`, the MIC in assay [1] turned out to be 128 µg/mL (≈ 285 µM); in [2], 128 µg/mL (≈ 285 µM); in assay [3], 128 µg/mL (≈ 285 µM); in assay [4], 64 µg/mL (≈ 143 µM); in assay [5], 128 µg/mL (≈ 285 µM); in assay [6], 256 µg/mL (≈ 571 µM). Also, the MIC in assay [7] was 128 µg/mL (≈ 285 µM); in [8], 256 µg/mL (≈ 571 µM); in [9], 128 µg/mL (≈ 285 µM); in assay [10], 64 µg/mL (≈ 143 µM); in assay [11], 128 µg/mL (≈ 285 µM).
With `CC(=O)Nc1ccc(S(=O)(=O)C/C(=N/Nc2ccc([N+](=O)[O-])cc2)c2nccs2)cc1`, the MIC came to 256 µg/mL (≈ 557 µM) in assay [1]; 32 µg/mL (≈ 69.6 µM) in assay [2]; 64 µg/mL (≈ 139 µM) in assay [3]; 256 µg/mL (≈ 557 µM) in [4]; 256 µg/mL (≈ 557 µM) in assay [5]; 256 µg/mL (≈ 557 µM) in assay [6]. Besides, the MIC in [7] was 32 µg/mL (≈ 69.6 µM); in assay [8] it was 256 µg/mL (≈ 557 µM); in assay [9] it was 256 µg/mL (≈ 557 µM); in assay [10], 64 µg/mL (≈ 139 µM); in [11] it was 32 µg/mL (≈ 69.6 µM).
As to `CC(=O)Nc1ccc(S(=O)(=O)C/C(=N/Nc2ccccc2)c2nccs2)cc1`, the MIC in [1] is 64 µg/mL (≈ 154 µM); in [2], 256 µg/mL (≈ 618 µM); in assay [3] it was 256 µg/mL (≈ 618 µM); in assay [4], 128 µg/mL (≈ 309 µM); in assay [5], 256 µg/mL (≈ 618 µM); in [6], 256 µg/mL (≈ 618 µM). The MIC came to 256 µg/mL (≈ 618 µM) in [7]; 256 µg/mL (≈ 618 µM) in assay [8]; 128 µg/mL (≈ 309 µM) in assay [9]; 256 µg/mL (≈ 618 µM) in assay [10]; 256 µg/mL (≈ 618 µM) in assay [11].
For `CC(=O)Nc1ccc(S(=O)(=O)C/C(=N/OCc2ccc(Cl)cc2Cl)c2nccs2)cc1`, the minimal inhibitory concentration (MIC) is 128 µg/mL (≈ 257 µM) in assay [1]; 128 µg/mL (≈ 257 µM) in assay [2]; 64 µg/mL (≈ 128 µM) in assay [3]; 64 µg/mL (≈ 128 µM) in assay [4]; 64 µg/mL (≈ 128 µM) in assay [5]; 128 µg/mL (≈ 257 µM) in [6]. Moreover, the MIC is 16 µg/mL (≈ 32.1 µM) in [7]; 128 µg/mL (≈ 257 µM) in assay [8]; 64 µg/mL (≈ 128 µM) in assay [9]; 32 µg/mL (≈ 64.2 µM) in assay [10]; 64 µg/mL (≈ 128 µM) in assay [11].
As to `N#CCO/N=C(/CS(=O)(=O)c1ccc(N)cc1)c1nccs1`, the MIC is 128 µg/mL (≈ 381 µM) in [1]; 128 µg/mL (≈ 381 µM) in assay [2]; 16 µg/mL (≈ 47.6 µM) in assay [3]; 64 µg/mL (≈ 190 µM) in assay [4]; 64 µg/mL (≈ 190 µM) in [5]; 64 µg/mL (≈ 190 µM) in assay [6]. The MIC in [7] stood at 8 µg/mL (≈ 23.8 µM); in [8], 64 µg/mL (≈ 190 µM); in assay [9], 64 µg/mL (≈ 190 µM); in [10] it was 32 µg/mL (≈ 95.1 µM); in assay [11], 64 µg/mL (≈ 190 µM).
